In publication PMC8296573, “Synthesis and Biological Evaluation of Fingolimod Derivatives as Antibacterial Agents” (ACS Omega, 2021):
In brackets after ≈: the same amount, converted by molar mass. Read-outs that look alike come from different tables or passages of the source.

Key:
S. aureus ATCC 25923 [1] = assay: Antibacterial activity, post-exposure on preformed 18-h-old biofilms; format: cell-based, Staphylococcus aureus; details: for Average inhibition %, biofilms viability / Average inhibition %, planktonic cells viability / inhibition at 25 µM / inhibition at 50 µM / inhibition at 100 µM / inhibition at 200 µM: ± SD; for inhibition at 25 µM / inhibition at 50 µM / inhibition at 100 µM / inhibition at 200 µM: Staphylococcus aureus; for inhibition at 25 µM: ATCC25923, 25 µM; for inhibition at 50 µM: ATCC25923, 50 µM; for inhibition at 100 µM: ATCC25923, 100 µM; for inhibition at 200 µM: ATCC25923, 200 µM
How it was run: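 Biofilms grown 18 h without compound, medium then replaced and compound added for a further 24 h. Planktonic OD and resazurin (20 μM final) fluorescence (ex 560/em 590 nm) read; washed biofilms stained with 20 μM resazurin 30 min at 37 °C, then ethanol-fixed and crystal violet-stained, absorbance 595 nm.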

S. aureus ATCC 25923 [2] = assay: Antibacterial activity, pre-exposure (planktonic cells and biofilm formation); format: cell-based, Staphylococcus aureus; details: for MIC / inhibition at 5 µM / inhibition at 10 µM / inhibition at 15 µM / inhibition at 25 µM: Staphylococcus aureus, ATCC25923; for inhibition at 5 µM / inhibition at 10 µM / inhibition at 15 µM / inhibition at 25 µM / Average inhibition %, biofilms viability / Average inhibition %, planktonic cells viability: pre-exposure, ± SD
How it was run: (§1)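 Compounds in DMSO were plated before bacteria were added (pre-exposure) and incubated 18 h aerobically at 37 °C with shaking. Planktonic cells were read by OD and resazurin fluorescence (20 μM final; ex 560/em 590 nm). Biofilms were read by resazurin, then crystal violet (A595) for total biomass.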

A. baumannii NCTC 13423 = assay: Antibacterial activity, pre-exposure; format: cell-based, Acinetobacter baumannii; details: for Average inhibition %, biofilms viability / Average inhibition %, planktonic cells viability / inhibition at 10 µM / inhibition at 15 µM / inhibition at 25 µM / inhibition at 50 µM: A. baumannii NCTC 13423, pre-exposure, ± SD; for inhibition at 10 µM / inhibition at 15 µM / inhibition at 25 µM / inhibition at 50 µM / MIC: Acinetobacter baumannii, NCTC13423
How it was run: as §1

S. aureus ATCC 12598 = assay: Antibacterial activity, pre-exposure; format: cell-based, Staphylococcus aureus; details: for Average inhibition %, biofilms viability / Average inhibition %, planktonic cells viability / inhibition at 5 µM / inhibition at 10 µM / inhibition at 15 µM / inhibition at 25 µM: S. aureus ATCC 12598, pre-exposure, ± SD
How it was run: as §1

P. aeruginosa ATCC 9027 = assay: Antibacterial activity, pre-exposure; format: cell-based, Pseudomonas aeruginosa; details: for Average inhibition %, biofilms viability / Average inhibition %, planktonic cells viability / inhibition at 50 µM / inhibition at 100 µM / inhibition at 150 µM / inhibition at 200 µM: P. aeruginosa ATCC 9027, pre-exposure, ± SD; for MIC / inhibition at 50 µM / inhibition at 100 µM / inhibition at 150 µM / inhibition at 200 µM: Pseudomonas aeruginosa; for inhibition at 50 µM / inhibition at 100 µM / inhibition at 150 µM / inhibition at 200 µM: ATCC9027
How it was run: as §1

[3] = read-out: Average inhibition %, biofilms biomass
[4] = read-out: Average inhibition %, planktonic cells turbidity
[5] = 10 µM, read-out: Average inhibition %, biofilms biomass
[6] = 10 µM, read-out: Average inhibition %, planktonic cells turbidity
[7] = 15 µM, read-out: Average inhibition %, biofilms biomass
[8] = 15 µM, read-out: Average inhibition %, planktonic cells turbidity
[9] = 25 µM, read-out: Average inhibition %, biofilms biomass
[10] = 25 µM, read-out: Average inhibition %, planktonic cells turbidity
[11] = 50 µM, read-out: Average inhibition %, biofilms biomass
[12] = 50 µM, read-out: Average inhibition %, planktonic cells turbidity

## CCCCCCCCc1ccc2ccc(CC(N)(CO)CO)nc2c1 [Compound 82, 2-Amino-2-[(7-octylquinolin-2-yl)methyl]propane-1,3-diol]
S. aureus ATCC 25923 [1]; 25 µM
  Average inhibition %, biofilms viability: 11.8 ± 8.4%
  Average inhibition %, planktonic cells viability: 0 ± 0%
S. aureus ATCC 25923 [1]; 50 µM
  Average inhibition %, biofilms viability: 27.8 ± 14.6%
  Average inhibition %, planktonic cells viability: 17.9 ± 25.5%
S. aureus ATCC 25923 [1]; 100 μM
  Inhibition of viability and total biomass of preformed biofilms: at least 70%
S. aureus ATCC 25923 [1]; 100 µM
  Average inhibition %, biofilms viability: 81.5 ± 32.8%
  Average inhibition %, planktonic cells viability: 94.5 ± 10%
S. aureus ATCC 25923 [1]; 200 µM
  Average inhibition %, biofilms viability: 100.2 ± 0.2%
  Average inhibition %, planktonic cells viability: 100.5 ± 0.5%
S. aureus ATCC 25923 [1]; [3]
  inhibition at 25 µM: 45.6 ± 7.5%
  inhibition at 50 µM: 51.6 ± 10.3%
  inhibition at 100 µM: 79.6 ± 17%
  inhibition at 200 µM: 79.8 ± 5.7%
S. aureus ATCC 25923 [1]; [4]
  inhibition at 25 µM: 14.1 ± 11.7%
  inhibition at 50 µM: 34.6 ± 28.4%
  inhibition at 100 µM: 79.1 ± 11.5%
  inhibition at 200 µM: 77.9 ± 10%
S. aureus ATCC 25923 [2]; lowest concentration with no visible growth (>90% inhibition of turbidity and viability of planktonic cells), 18 h, read-out: MIC S. aureus ATCC 25923
  MIC: 15 µM (≈ 5.17 µg/mL)
S. aureus ATCC 25923 [2]; 5 µM, read-out: Average inhibition %, biofilms biomass
  inhibition at 5 µM: 41.7 ± 5.1%
S. aureus ATCC 25923 [2]; 5 µM, read-out: Average inhibition %, planktonic cells turbidity
  inhibition at 5 µM: 32.8 ± 33.4%
S. aureus ATCC 25923 [2]; [5]
  inhibition at 10 µM: 67.2 ± 23.4%
S. aureus ATCC 25923 [2]; [6]
  inhibition at 10 µM: 61.5 ± 33.3%
S. aureus ATCC 25923 [2]; [7]
  inhibition at 15 µM: 94.4 ± 4.6%
S. aureus ATCC 25923 [2]; [8]
  inhibition at 15 µM: 99.9 ± 0.1%
S. aureus ATCC 25923 [2]; [9]
  inhibition at 25 µM: 93 ± 5.8%
S. aureus ATCC 25923 [2]; [10]
  inhibition at 25 µM: 99.9 ± 0.1%
S. aureus ATCC 25923 [2]; read-out: MIC (S. aureus)
  MIC: 15 µM (≈ 5.17 µg/mL)
S. aureus ATCC 25923 [2]; lowest concentration with no visible growth (>90% inhibition of turbidity and viability of planktonic cells), 18 h
  MIC S. aureus ATCC 25923: same MIC as fingolimod
S. aureus ATCC 25923 [2]; 5 µM
  Average inhibition %, biofilms viability: 34.4 ± 13.6%
  Average inhibition %, planktonic cells viability: 6.1 ± 10.6%
S. aureus ATCC 25923 [2]; 10 µM
  Average inhibition %, biofilms viability: 63.5 ± 30.9%
  Average inhibition %, planktonic cells viability: 33 ± 57.1%
S. aureus ATCC 25923 [2]; 15 µM
  Average inhibition %, biofilms viability: 99.7 ± 0.3%
  Average inhibition %, planktonic cells viability: 99.6 ± 0%
S. aureus ATCC 25923 [2]; 25 µM
  Average inhibition %, biofilms viability: 99.7 ± 0.4%
  Average inhibition %, planktonic cells viability: 99.7 ± 0%
A. baumannii NCTC 13423; 10 µM
  Average inhibition %, biofilms viability: 3.9 ± 5.3%
  Average inhibition %, planktonic cells viability: 10.4 ± 9%
A. baumannii NCTC 13423; 15 µM
  Average inhibition %, biofilms viability: 96.5 ± 6%
  Average inhibition %, planktonic cells viability: 99.5 ± 0.5%
A. baumannii NCTC 13423; 25 µM
  Average inhibition %, biofilms viability: 100.7 ± 1.1%
  Average inhibition %, planktonic cells viability: 99.7 ± 0%
A. baumannii NCTC 13423; 50 µM
  Average inhibition %, biofilms viability: 99 ± 1.3%
  Average inhibition %, planktonic cells viability: 99.6 ± 0%
A. baumannii NCTC 13423; [5]
  inhibition at 10 µM: 13.3 ± 12.9%
A. baumannii NCTC 13423; [6]
  inhibition at 10 µM: 1 ± 1.4%
A. baumannii NCTC 13423; [7]
  inhibition at 15 µM: 74.7 ± 11.1%
A. baumannii NCTC 13423; [8]
  inhibition at 15 µM: 98.3 ± 2.5%
A. baumannii NCTC 13423; [9]
  inhibition at 25 µM: 88.6 ± 7.8%
A. baumannii NCTC 13423; [10]
  inhibition at 25 µM: 99.8%
A. baumannii NCTC 13423; [11]
  inhibition at 50 µM: 82.6 ± 12.7%
A. baumannii NCTC 13423; [12]
  inhibition at 50 µM: 99.4 ± 0.1%
A. baumannii NCTC 13423; pre-exposure, Inactive = no activity up to 50 μM, > = some inhibition but no MIC reached, read-out: MIC A. baumannii NCTC 13423
  MIC: 15 µM (≈ 5.17 µg/mL)
A. baumannii NCTC 13423; supplementary molecular formula strings sheet, read-out: MIC (A. baumannii)
  MIC: 15 µM (≈ 5.17 µg/mL)
S. aureus ATCC 12598; 5 µM
  Average inhibition %, biofilms viability: 12.2 ± 12.8%
  Average inhibition %, planktonic cells viability: 13.3 ± 5%
S. aureus ATCC 12598; 10 µM
  Average inhibition %, biofilms viability: 99.1 ± 0.2%
  Average inhibition %, planktonic cells viability: 99.8 ± 0%
S. aureus ATCC 12598; 15 µM
  Average inhibition %, biofilms viability: 99.5 ± 0%
  Average inhibition %, planktonic cells viability: 99.7 ± 0%
S. aureus ATCC 12598; 25 µM
  Average inhibition %, biofilms viability: 99.7 ± 0.1%
  Average inhibition %, planktonic cells viability: 99.6 ± 0.1%
S. aureus ATCC 12598; Staphylococcus aureus, ATCC12598, 5 µM, read-out: Average inhibition %, biofilms biomass
  inhibition at 5 µM: 26.3 ± 11.6%
S. aureus ATCC 12598; Staphylococcus aureus, ATCC12598, 5 µM, read-out: Average inhibition %, planktonic cells turbidity
  inhibition at 5 µM: 20.6 ± 8.5%
S. aureus ATCC 12598; Staphylococcus aureus, ATCC12598, 10 µM, read-out: Average inhibition %, biofilms biomass
  inhibition at 10 µM: 94.4 ± 1.7%
S. aureus ATCC 12598; Staphylococcus aureus, ATCC12598, 10 µM, read-out: Average inhibition %, planktonic cells turbidity
  inhibition at 10 µM: 99.6 ± 0.1%
S. aureus ATCC 12598; Staphylococcus aureus, ATCC12598, 15 µM, read-out: Average inhibition %, biofilms biomass
  inhibition at 15 µM: 97.1 ± 1.1%
S. aureus ATCC 12598; Staphylococcus aureus, ATCC12598, 15 µM, read-out: Average inhibition %, planktonic cells turbidity
  inhibition at 15 µM: 99.7%
S. aureus ATCC 12598; Staphylococcus aureus, ATCC12598, 25 µM, read-out: Average inhibition %, biofilms biomass
  inhibition at 25 µM: 94.6 ± 1.4%
S. aureus ATCC 12598; Staphylococcus aureus, ATCC12598, 25 µM, read-out: Average inhibition %, planktonic cells turbidity
  inhibition at 25 µM: 99.4 ± 0.2%
S. aureus ATCC 12598; Staphylococcus aureus, ATCC12598, pre-exposure, 18 h, read-out: MIC S. aureus ATCC 12598
  MIC: 10 µM (≈ 3.44 µg/mL)
P. aeruginosa ATCC 9027; 50 µM
  Average inhibition %, biofilms viability: 6.4 ± 5.7%
  Average inhibition %, planktonic cells viability: 53.2 ± 3.8%
P. aeruginosa ATCC 9027; 100 µM
  Average inhibition %, biofilms viability: 8.3 ± 8.6%
  Average inhibition %, planktonic cells viability: 48.1 ± 18.4%
P. aeruginosa ATCC 9027; 150 µM
  Average inhibition %, biofilms viability: 3.5 ± 6%
  Average inhibition %, planktonic cells viability: 57.4 ± 19%
P. aeruginosa ATCC 9027; 200 µM
  Average inhibition %, biofilms viability: 31.5 ± 49.1%
  Average inhibition %, planktonic cells viability: 51.6 ± 41.5%
P. aeruginosa ATCC 9027; ATCC9027, pre-exposure, Inactive = no activity up to 200 μM, > = some inhibition but no MIC reached, read-out: MIC P. aeruginosa ATCC 9027
  MIC: > 200 µM
P. aeruginosa ATCC 9027; ATCC9027, supplementary molecular formula strings sheet, read-out: MIC (P. aeruginosa)
  MIC: > 200 µM
P. aeruginosa ATCC 9027; [11]
  inhibition at 50 µM: 7.6 ± 7%
P. aeruginosa ATCC 9027; [12]
  inhibition at 50 µM: 46.8 ± 2.3%
P. aeruginosa ATCC 9027; 100 µM, read-out: Average inhibition %, biofilms biomass
  inhibition at 100 µM: 1.8 ± 2.7%
P. aeruginosa ATCC 9027; 100 µM, read-out: Average inhibition %, planktonic cells turbidity
  inhibition at 100 µM: 51.6 ± 8.5%
P. aeruginosa ATCC 9027; 150 µM, read-out: Average inhibition %, biofilms biomass
  inhibition at 150 µM: 2.7 ± 4.8%
P. aeruginosa ATCC 9027; 150 µM, read-out: Average inhibition %, planktonic cells turbidity
  inhibition at 150 µM: 61.3 ± 19.9%
P. aeruginosa ATCC 9027; 200 µM, read-out: Average inhibition %, biofilms biomass
  inhibition at 200 µM: 27.5 ± 24.4%
P. aeruginosa ATCC 9027; 200 µM, read-out: Average inhibition %, planktonic cells turbidity
  inhibition at 200 µM: 75.7 ± 14.1%
